According to patent US20080306055A1, “Heterocyclic Mchr1 Antagonists And Their Use In Therapy” (ASTRAZENECA AB, priority 2004, published 2008):

Legend:
recombinant hMCHr1 = target: T1, recombinant hMCHr1 (Homo sapiens, UniProt Q99705); assay: MCHr1 functional assay ([35S]GTPγS binding, membranes); type: biochemical; details: ED80 concentration of MCH, antagonist mode
T1 construct: purchased Euroscreen
Method: Membranes expressing recombinant hMCHr1 ([…] protein; Euroscreen) were prepared in assay buffer (50 mM HEPES, 100 mM NaCl, 5 mM MgCl2, 1 mM EDTA, 200 μM DTT, 20 μM GDP (Sigma) containing 0.1 μg/ml BSA, pH7.4) before assay. The assays were performed using membranes at 6 μg/well in an assay volume of 200 μL and the appropriate concentrations of compounds prepared in DMSO. The reaction was started by addition of 0.056 nM [^35S]GTPγS (Specific activity >1000 Ci/mmol; Amersham) and an ED80 concentration of MCH (determined for each membrane and each MCH batch). Non-specific binding was determined using 20 μM non-radiolabelled GTPγS. Plates were incubated for 45 min at 30° C. Free and bound GTPγS were separated by filtration binding using GF/B filter mats presoaked in wash buffer (50 mM Tris, 5 mM MgCl2, 50 mM NaCl, pH 7.4) using a Micro96 cell harvester (Skatron Instruments) and the filters then dried at 50° C. before counting using a 1450 Microbeta TRILUX (Wallac).
Data are means ±SD for experiments performed in triplicate. IC50 values of antagonists were determined using non-linear regression analysis of concentration response curves using Activity Base. For instance, the following IC50 values were obtained for the compounds of the following examples: […]

[1] = target: T2, human Melanin concentrating hormone receptor 1 (hMCHr1) (Homo sapiens, UniProt Q99705); assay: MCH1 receptor radioligand binding (125I-MCH, CHO-K1 membranes); details: 125I-MCH displacement, membranes from CHO-K1 cells expressing hMCHr1; read-out: IC50 in human MCHr1 binding assay
T2 construct: purchased Euroscreen; host or cells: CHO-K1
Method: MCH1 Receptor Radioligand Binding.
Assays were performed on membranes prepared from CHO-K1 cells expressing the human Melanin concentrating hormone receptor 1 (hMCHr1, 5.45 pmol/mg protein; Euroscreen). Assays were performed in a 96-well plate format in a final reaction volume of 200 μl per well. Each well contained 6 μg of membrane proteins diluted in binding buffer (50 mM Tris, 3 mM MgCl2, 0.05% bovine serum albumin and the radioligand ^125I-MCH (IM344 Amersham) was added to give 10 000 cpm (counts per minute) per well. Each well contained 2 μl of the appropriate concentration of competitive antagonist prepared in DMSO and left to stand at 30° C. for 60 minutes. Non-specific binding was determined as that remaining following incubation with […] MCH (Melanin concentrating hormone, H-1482 Bachem). The reaction was terminated by transfer of the reaction to GF/A filters using a Micro96 Harvester (Skatron Instruments, Norway). Filters were washed with assay buffer. Radioligand retained on the filters was quantified using a 1450 Microbeta TRILUX (Wallac, Finland).
Non-specific binding was subtracted from all values determined. Maximum binding was that determined in the absence of any competitor following subtraction of the value determined for non-specific binding. Binding of compounds at various concentrations was plotted according to the equation
A is the bottom plateau of the curve i.e. the final minimum y value
B is the top of the plateau of the curve i.e. the final maximum y value
C is the x value at the middle of the curve. This represents the log EC50 value when A+B=100
D is, the slope factor. x is the original known x values. y is the original known y values.

HERG = HERG (Homo sapiens, UniProt Q12809); assay: HERG activity (planar-array-based voltage clamp); type: cell-based; details: modified planar-array voltage clamp method
Method: HERG testing was performed using a modified version of the method described by Kiss L, Bennett P B, Uebele V N, Koblan K S, Kane S A, Neagle B, Schroeder K. “High throughput ion-channel pharmacology: planar-array-based voltage clamp” Assay Drug Dev Technol. 1, 127-35. (2003).

T2 sequence (Q99705 whole entry): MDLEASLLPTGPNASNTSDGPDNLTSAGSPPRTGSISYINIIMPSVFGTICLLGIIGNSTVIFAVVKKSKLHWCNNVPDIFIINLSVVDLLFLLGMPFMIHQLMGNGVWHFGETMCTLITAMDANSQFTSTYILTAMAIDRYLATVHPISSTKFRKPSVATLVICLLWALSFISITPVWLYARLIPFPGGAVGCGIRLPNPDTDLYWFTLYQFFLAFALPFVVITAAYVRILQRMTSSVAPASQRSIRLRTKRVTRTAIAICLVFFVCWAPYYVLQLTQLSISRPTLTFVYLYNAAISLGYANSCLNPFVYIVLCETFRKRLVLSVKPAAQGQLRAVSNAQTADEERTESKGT
T1 sequence (Q99705 whole entry): as above
Sequence of HERG (Q12809 whole entry): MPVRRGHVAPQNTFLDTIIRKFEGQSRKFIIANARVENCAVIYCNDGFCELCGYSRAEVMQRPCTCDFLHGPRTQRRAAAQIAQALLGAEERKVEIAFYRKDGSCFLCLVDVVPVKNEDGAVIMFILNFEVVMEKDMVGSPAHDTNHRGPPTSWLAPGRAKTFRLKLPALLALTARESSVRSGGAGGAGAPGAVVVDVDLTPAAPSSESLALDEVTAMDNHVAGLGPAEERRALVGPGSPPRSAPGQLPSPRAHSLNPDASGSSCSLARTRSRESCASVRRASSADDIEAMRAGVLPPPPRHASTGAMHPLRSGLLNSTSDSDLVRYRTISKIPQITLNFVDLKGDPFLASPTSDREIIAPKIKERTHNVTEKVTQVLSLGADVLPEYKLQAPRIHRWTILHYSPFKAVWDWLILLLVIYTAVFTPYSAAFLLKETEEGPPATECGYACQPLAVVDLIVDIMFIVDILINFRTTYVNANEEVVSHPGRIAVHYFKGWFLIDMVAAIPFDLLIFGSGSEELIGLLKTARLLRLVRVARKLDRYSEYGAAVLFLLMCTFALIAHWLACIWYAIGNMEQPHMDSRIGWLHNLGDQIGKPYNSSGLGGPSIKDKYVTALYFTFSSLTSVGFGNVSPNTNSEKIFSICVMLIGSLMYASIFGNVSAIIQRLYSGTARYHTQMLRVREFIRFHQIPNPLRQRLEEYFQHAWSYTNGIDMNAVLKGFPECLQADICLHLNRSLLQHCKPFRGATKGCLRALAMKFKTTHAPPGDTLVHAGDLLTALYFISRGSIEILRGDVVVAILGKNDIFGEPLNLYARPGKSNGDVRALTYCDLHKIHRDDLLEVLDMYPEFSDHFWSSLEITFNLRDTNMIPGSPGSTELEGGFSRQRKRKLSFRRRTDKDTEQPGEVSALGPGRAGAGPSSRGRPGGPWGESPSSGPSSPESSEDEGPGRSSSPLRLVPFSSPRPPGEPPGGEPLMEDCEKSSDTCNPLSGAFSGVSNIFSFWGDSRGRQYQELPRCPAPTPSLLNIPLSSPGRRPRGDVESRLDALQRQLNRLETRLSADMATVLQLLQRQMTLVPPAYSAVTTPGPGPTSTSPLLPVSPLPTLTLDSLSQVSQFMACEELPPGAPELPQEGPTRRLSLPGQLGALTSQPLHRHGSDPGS

SMILES | IC50 (recombinant hMCHr1) | IC50 [1] | IC50 (HERG)
O=C(NC1CCN(Cc2ccn(-c3ccc(C(F)(F)F)cc3)c2)CC1)C(c1ccccc1)c1ccccc1 [Example 1, 2,2-diphenyl-N-[1-({1-[4-(trifluoromethyl)phenyl]-1H-pyrrol-3-yl}methyl)piperidin-4-yl]acetamide] | 42 nM |  | 
CC(O)CCNC(=O)NC1CCN(Cc2ccn(-c3ccc(C(F)(F)F)cc3)c2)CC1 (stereo not drawn) [Example 76, N-(3-hydroxybutyl)-N′-[1-({1-[4-(trifluoromethyl)phenyl]-1H-pyrrol-3-yl}methyl)piperidin-4-yl]urea] |  |  | > 5000 nM
O=C(Nc1ccc(Cl)cc1Cl)NC1CCN(Cc2ccn(-c3ccc(C(F)(F)F)cc3)c2)CC1 [Example 6, N-(2,4-dichlorophenyl)-N′-[1-({1-[4-(trifluoromethyl)phenyl]-1H-pyrrol-3-yl}methyl)piperidin-4-yl]urea] |  | 72 nM | 

Second part, led by results:

IC50 (recombinant hMCHr1) | IC50 [1] | SMILES | IC50 (HERG)
 | 14 nM | O=C(NCCc1ccccc1)C1CCN(Cc2ccn(-c3ccc(C(F)(F)F)cc3)c2)CC1 [Example 3, N-(2-phenylethyl)-1-({1-[4-(trifluoromethyl)phenyl]-1H-pyrrol-3-yl}methyl)piperidine-4-carboxamide] | 
112 nM | 12 nM | O=C(CC1CCN(Cc2ccn(-c3ccc(C(F)(F)F)cc3)c2)CC1)NCc1ccc(F)c(F)c1 [Example 2, N-(3,4-difluorobenzyl)-2-[1-({1-[4-(trifluoromethyl)phenyl]-1H-pyrrol-3-yl}methyl)piperidin-4-yl]acetamide] | 
